Test results as given in patent US20200405697A1, “Antitumor Agent” (Taiho Pharmaceutical Co., Ltd, priority 2017, published 2020).

The compounds below were run against T1, human RNR (histidine tagged human M1 and human M2 proteins) (Homo sapiens, UniProt P23921) (assay: Human RNR inhibition effect (dCDP formation from CDP)). Conditions: 10 μM CDP, 37° C. for 30 minutes, read-out: RNR inhibitory activity IC50.
T1 construct: made in house; host or cells: Escherichia coli
T1 sequence (P23921 1-792): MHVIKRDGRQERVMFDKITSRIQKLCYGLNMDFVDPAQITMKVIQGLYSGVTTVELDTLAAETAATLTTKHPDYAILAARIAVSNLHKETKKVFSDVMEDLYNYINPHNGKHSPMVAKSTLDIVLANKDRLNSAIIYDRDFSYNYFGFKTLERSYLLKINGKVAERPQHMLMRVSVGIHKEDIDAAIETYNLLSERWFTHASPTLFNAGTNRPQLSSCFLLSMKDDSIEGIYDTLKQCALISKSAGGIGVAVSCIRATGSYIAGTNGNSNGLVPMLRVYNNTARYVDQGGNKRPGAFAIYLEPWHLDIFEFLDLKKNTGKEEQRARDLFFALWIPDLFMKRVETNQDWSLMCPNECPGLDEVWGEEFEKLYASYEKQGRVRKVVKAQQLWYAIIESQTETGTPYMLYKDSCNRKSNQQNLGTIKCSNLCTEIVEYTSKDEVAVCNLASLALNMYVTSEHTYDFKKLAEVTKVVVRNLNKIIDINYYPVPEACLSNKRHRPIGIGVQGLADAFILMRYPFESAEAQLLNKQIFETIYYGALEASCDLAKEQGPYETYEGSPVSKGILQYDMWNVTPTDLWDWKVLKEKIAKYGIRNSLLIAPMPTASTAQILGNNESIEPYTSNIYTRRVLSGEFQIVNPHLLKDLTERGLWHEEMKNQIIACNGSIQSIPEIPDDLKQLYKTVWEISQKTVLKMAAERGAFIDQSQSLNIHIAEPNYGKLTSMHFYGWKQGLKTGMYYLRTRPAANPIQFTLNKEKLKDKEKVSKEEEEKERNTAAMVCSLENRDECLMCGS
Assay type: biochemical
Method in brief: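 His-tagged human M1 (isoform 1) and N-terminal 59-aa-truncated M2 (isoform 2), E. coli-expressed, Ni-purified, preincubated 20 min with compound (1% DMSO). Reaction with 10 μM CDP, 2 mM ATP, 0.24 mM NADPH, 6 mM DTT, 4 mM Mg acetate, 100 mM KCl, 50 mM HEPES pH 7.2, 30 min at 37° C. dCDP formed quantified by reverse-phase HPLC after heat stop.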
An IC50 of 140 nM was found for Cc1ccc(F)c([C@@H](C)[C@H](NS(=O)(=O)c2cc(C(=O)N(C)C)ccc2C(N)=O)c2n[nH]c(=O)o2)c1C [Example 37, 3-(N-((1S,2R)-2-(6-fluoro-2,3-dimethylphenyl)-1-(5-oxo-4,5-dihydro-1,3,4-oxadiazol-2-yl)propyl)sulfamoyl)-N1,N1-dimethylterephthalamide] in this work. An IC50 of 640 nM was found for Cc1ccc(F)c([C@@H](C)[C@H](NS(=O)(=O)c2ccccc2C#N)c2n[nH]c(=O)o2)c1C [Example 98, 2-cyano-N-((1S,2R)-2-(6-fluoro-2,3-dimethylphenyl)-1-(5-oxo-4,5-dihydro-1,3,4-oxadiazol-2-yl)propyl)benzenesulfonamide] in this work. An IC50 of 290 nM was found for Cc1ccc(F)c([C@@H](C)[C@H](NS(=O)(=O)c2cccc3c2OC(C)(C)CC3O)c2n[nH]c(=O)o2)c1C (single isomer, unassigned) [Example 237A] in this work. An IC50 of 760 nM was found for Cc1ccc(F)c([C@@H](C)[C@H](NS(=O)(=O)c2cccc3c2CCNC3)c2n[nH]c(=O)o2)c1C [Example 281, N-((1S,2R)-2-(6-fluoro-2,3-dimethylphenyl)-1-(5-oxo-4,5-dihydro-1,3,4-oxadiazol-2-yl)propyl)-1,2,3,4-tetrahydroisoquinoline-5-sulfonamide] in this work. An IC50 of 360 nM was found for Cc1ccc(F)c([C@@H](C)[C@H](NS(=O)(=O)c2ccc(Cl)cc2C#N)c2n[nH]c(=O)o2)c1C [Example 84, 4-chloro-2-cyano-N-((1S,2R)-2-(6-fluoro-2,3-dimethylphenyl)-1-(5-oxo-4,5-dihydro-1,3,4-oxadiazol-2-yl)propyl)benzenesulfonamide] in this work. An IC50 of 840 nM was found for CCc1c(C)cccc1[C@@H](C)[C@H](NS(=O)(=O)c1ccc(Cl)cc1OC)c1n[nH]c(=O)o1 [Example 87, 4-chloro-N-((1S,2R)-2-(2-ethyl-3-methylphenyl)-1-(5-oxo-4,5-dihydro-1,3,4-oxadiazol-2-yl)propyl)-2-methoxybenzenesulfonamide] in this work. An IC50 of 790 nM was found for Cc1ccc(F)c([C@@H](C)[C@H](NS(=O)(=O)c2cc3c(cc2C(=O)O)OCCO3)c2n[nH]c(=O)o2)c1C [Example 223, 7-(N-((1S,2R)-2-(6-fluoro-2,3-dimethylphenyl)-1-(5-oxo-4,5-dihydro-1,3,4-oxadiazol-2-yl)propyl)sulfamoyl)-2,3-dihydrobenzo[b][1,4]dioxin-6-Carboxylic Acid] in this work. An IC50 of 80 nM was found for Cc1ccc(F)c([C@@H](C)[C@H](NS(=O)(=O)c2ccc(Cl)c(C(=O)N(C)C)n2)c2n[nH]c(=O)o2)c1C [Example 253, 3-chloro-6-(N-((1S,2R)-2-(6-fluoro-2,3-dimethylphenyl)-1-(5-oxo-4,5-dihydro-1,3,4-oxadiazol-2-yl)propyl)sulfamoyl)-N,N-dimethylpicolinamide] in this work. An IC50 of 790 nM was found for Cc1ccc(F)c([C@H](C)[C@H](NS(=O)(=O)c2ccc(Cl)cc2C(N)=O)c2n[nH]c(=O)o2)c1C [Example 32, 5-chloro-2-(N-((1S,2S)-2-(6-fluoro-2,3-dimethylphenyl)-1-(5-oxo-4,5-dihydro-1,3,4-oxadiazol-2-yl)propyl)sulfamoyl)benzamide] in this work. An IC50 of 320 nM was found for Cc1ccc(F)c([C@@H](C)[C@H](NS(=O)(=O)c2ccc3c(c2)CCCO3)c2n[nH]c(=O)o2)c1C [Example 183, N-((1S,2R)-2-(6-fluoro-2,3-dimethylphenyl)-1-(5-oxo-4,5-dihydro-1,3,4-oxadiazol-2-yl)propyl)chroman-6-sulfonamide] in this work. An IC50 of 270 nM was found for Cc1ccc(F)c([C@@H](C)[C@H](NS(=O)(=O)c2c(F)cc(Cl)cc2C(=O)O)c2n[nH]c(=O)o2)c1C [Example 219, 5-chloro-3-fluoro-2-(N-((1S,2R)-2-(6-fluoro-2,3-dimethylphenyl)-1-(5-oxo-4,5-dihydro-1,3,4-oxadiazol-2-yl)propyl)sulfamoyl)benzoic acid] in this work. An IC50 of 110 nM was found for COc1c(S(=O)(=O)N[C@H](c2n[nH]c(=O)o2)[C@H](C)c2c(F)ccc(C)c2C)ccc(Cl)c1C(C)(C)O [Example 212, 4-chloro-N-((1S,2R)-2-(6-fluoro-2,3-dimethylphenyl)-1-(5-oxo-4,5-dihydro-1,3,4-oxadiazol-2-yl)propyl)-3-(2-hydroxypropan-2-yl)-2-methoxybenzenesulfonamide] in this work. An IC50 of 110 nM was found for Cc1c(Cl)ccc(F)c1[C@@H](C)[C@H](NS(=O)(=O)c1ccc(F)c2c1OCCC2(C)O)c1n[nH]c(=O)o1 (single isomer, unassigned) [Example 229B] in this work. An IC50 of 190 nM was found for Cc1ccc(F)c([C@@H](C)[C@H](NS(=O)(=O)c2ccc(Cl)nc2C(N)=O)c2n[nH]c(=O)o2)c1C [Example 19, 6-Chloro-3-(N-((1S,2R)-2-(6-fluoro-2,3-dimethylphenyl)-1-(5-oxo-4,5-dihydro-1,3,4-oxadiazol-2-yl)propyl)sulfamoyl)picolinamide] in this work. An IC50 of 350 nM was found for CC#CC(O)(C#CC)c1ccc(C(N)=O)c(S(=O)(=O)N[C@H](c2n[nH]c(=O)o2)[C@H](C)c2c(F)ccc(C)c2C)c1 [Example 199] in this work. An IC50 of 230 nM was found for Cc1cccc2cccc([C@@H](C)[C@H](NS(=O)(=O)c3ccc(Cl)c4c3OCCC4O)c3n[nH]c(=O)o3)c12 (stereo partly drawn) [Example 232, 5-chloro-4-hydroxy-N-((1S,2R)-2-(8-methylnaphthalene-1-yl)-1-(5-oxo-4,5-dihydro-1,3,4-oxadiazol-2-yl)propyl)chroman-8-sulfonamide] in this work. An IC50 of 140 nM was found for Cc1ccc(F)c([C@@H](C)[C@H](NS(=O)(=O)c2c(F)cc(Cl)cc2C(N)=O)c2n[nH]c(=O)o2)c1C [Example 258, 5-chloro-3-fluoro-2-(N-((1S,2R)-2-(6-fluoro-2,3-dimethylphenyl)-1-(5-oxo-4,5-dihydro-1,3,4-oxadiazol-2-yl)propyl)sulfamoyl)benzamide] in this work. An IC50 of 600 nM was found for C[C@H](c1cc(F)cc2ccccc12)[C@H](NS(=O)(=O)c1ccc(Cl)cc1C(N)=O)c1n[nH]c(=O)o1 [Example 9, 5-chloro-2-(N-((1S,2R)-2-(3-fluoronaphthalen-1-yl)-1-(5-oxo-4,5-dihydro-1,3,4-oxadiazol-2-yl)propyl)sulfamoyl)benzamide] in this work. An IC50 of 80 nM was found for CC(=O)OC1(C)CCOc2c(S(=O)(=O)N[C@H](c3n[nH]c(=O)o3)[C@H](C)c3c(F)ccc(Br)c3C)ccc(Cl)c21 (some centres unmarked) [Example 167] in this work. An IC50 of 130 nM was found for Cc1ccc(F)c([C@@H](C)[C@H](NS(=O)(=O)c2ccc(C3CC3)cc2C(N)=O)c2n[nH]c(=O)o2)c1C [Example 16, 5-Cyclopropyl-2-(N-((1S,2R)-2-(6-Fluoro-2,3-dimethylphenyl)-1-(5-oxo-4,5-dihydro-1,3,4-oxadiazol-2-yl)propyl)sulfamoyl)benzamide] in this work. An IC50 of 310 nM was found for COC(=O)c1c(Cl)ccc(S(=O)(=O)N[C@H](c2n[nH]c(=S)o2)[C@H](C)c2cccc3c2CCC3)c1Cl [Example 333, methyl 2,6-dichloro-3-(N-((1S,2R)-2-(2,3-dihydro-1H-inden-4-yl)-1-(5-thioxo-4,5-dihydro-1,3,4-oxadiazol-2-yl)propyl)sulfamoyl)benzoate] in this work. An IC50 of 100 nM was found for Cc1ccc(F)c([C@@H](C)[C@H](NS(=O)(=O)c2ccc(Cl)c3c2OCCN3)c2n[nH]c(=O)o2)c1C [Example 275, 5-chloro-N-((1S,2R)-2-(6-fluoro-2,3-dimethylphenyl)-1-(5-oxo-4,5-dihydro-1,3,4-oxadiazol-2-yl)propyl)-3,4-dihydro-2H-benzo[b][1,4]oxazine-8-sulfonamide] in this work. An IC50 of 250 nM was found for CNC(=O)c1cc(Br)cnc1S(=O)(=O)N[C@H](c1n[nH]c(=O)o1)[C@H](C)c1c(F)ccc(C)c1C [Example 251, 5-bromo-2-(N-((1S,2R)-2-(6-fluoro-2,3-dimethylphenyl)-1-(5-oxo-4,5-dihydro-1,3,4-oxadiazol-2-yl)propyl)sulfamoyl)-N-methylnicotinamide] in this work. An IC50 of 990 nM was found for Cc1ccc(F)c([C@@H](C)[C@H](NS(=O)(=O)c2ncc(Br)cc2C(=O)O)c2n[nH]c(=O)o2)c1C [Example 214, 5-bromo-2-(N-((1S,2R)-2-(6-fluoro-2,3-dimethylphenyl)-1-(5-oxo-4,5-dihydro-1,3,4-oxadiazol-2-yl)propyl)sulfamoyl)nicotinic acid] in this work. An IC50 of 300 nM was found for CC(=O)OC1(C)CCOc2c(S(=O)(=O)N[C@H](c3n[nH]c(=O)o3)[C@H](C)c3c(F)ccc(Cl)c3C)ccc(Cl)c21 (stereo partly drawn) [Example 100, 5-chloro-8-(N-((1S,2R)-2-(3-chloro-6-fluoro-2-methylphenyl)-1-(5-oxo-4,5-dihydro-1,3,4-oxadiazol-2-yl)propyl)sulfamoyl)-4-methylchroman-4-yl acetate] in this work. An IC50 of 310 nM was found for C[C@H](c1c(F)ccc2ccccc12)[C@H](NS(=O)(=O)c1ccc(Cl)c2c1OCCC2O)c1n[nH]c(=O)o1 (single isomer, unassigned) [Example 234A] in this work.
